Assay results as given in patent publication US20050026270A1 (University of Maryland, priority 1999, published 2005).

Experiments:
[1] = Stability of subtilin: activity retained after storage or exposure to light
[2] = 120 h

| Substance | loss of activity on exposure to light ([1]; exposure to light) | loss of activity on storage ([1]; stored at 4° C. or 20° C.) | activity remaining after storage [2] |
| --- | --- | --- | --- |
| subtilin | rapid loss of activity | loses activity rapidly |  |
| subtilin [stable subtilin] |  |  | greater than 50% |
